Assay results from patent US20240076347A1, “METHODS FOR PREVENTING FUNGAL INFECTIONS” (Cidara Therapeutics, Inc., priority 2016, published 2024).
Numbered stars: 1 amine (or outer) side, 2 acyl side, 3 side chain; on linkers, the order of the positions; unused ones are H or OH. Bridge positions count the residues as written; N and C are the ends. Square brackets hold non-standard residues; d marks the D form. Peptide text beside a SMILES is read from it. * marks the point of attachment. ξ: configuration not given here. Orn(4R-OH,5R-OCH2CH2NMe3+) = C[N+](C)(C)CCO[C@@H](N[*:3])[C@H](O)C[C@H](N[*:1])C(=O)[*:2]; pTerphenylCO(4''-OnC5H11) = CCCCCOc1ccc(-c2ccc(-c3ccc(C(=O)*)cc3)cc2)cc1; hTyr(3S-OH,4S-OH) = N[C@H](C(=O)O)[C@H](O)[C@@H](O)c1ccc(O)cc1; X1 = C[C@H]1CN([*:1])C(C(=O)[*:2])C1O; Hyp = O=C(O)[C@@H]1C[C@@H](O)CN1; ξT = CC(O)C(N)C(=O)O

Assays:
[1] = Tissue distribution in SD rats after IV dose; type: in vivo; details: Sprague-Dawley, rat, 5 mg/kg IV
Method: The in vitro activity of CD101 was evaluated against 153 A. fumigatus clinical isolates collected as part of the 2014 and 2015 JMI international SENTRY surveillance program. Susceptibility was determined by measuring the minimal effective concentration (MEC) values in accordance with CLSI broth microdilution guidelines (M38-A2). In vivo tissue distribution of CD101 in SD rats (N=3/time up to 5 d) after a 5 mg/kg IV CD101 dose. Plasma/tissue concentrations were measured by LC-MS/MS.

[2] = system: Candida albicans (ATCC SC5314); assay: Disseminated candidiasis in immunocompetent DBA/2 mice, prophylaxis, kidney fungal burden; type: in vivo
Method: Cultures of Candida albicans (ATCC SC5314) were grown overnight at 37° C. in an ambient atmosphere on Sabouraud agar. Cultures were removed from the incubator, aseptically transferred to tubes of phosphate buffered saline (PBS), and an optical density was determined at 600 nm. The cultures were diluted to provide a challenge inoculate of approximately 5.0 log10 CFU per mouse in a volume of 100 μL. Each animal was administered an intravenous (IV) challenge in a volume of 100 IL on Day 0. Instillation of the challenge constituted time 0 hour for the study.
Mice were treated with CD101 one time via subcutaneous (SC) injection prior to challenge on either Day −5, Day −3, Day −1 or Day 0 per Table 3. Micafungin and vehicle controls were administered on Day 0 as per Table 3. Day 0 treatment or control administration occurred immediately following the challenge. Test articles were administered in a volume of 0.5 mL.
The primary endpoint used to assess progress of the infection was mean CFU burden per gram of kidney tissue. At 24 hours post-challenge, mice were humanely euthanized via CO2 overexposure. Kidneys were aseptically removed, weighed, and transferred to sterile tubes containing 2 mL of PBS. Tissues were homogenized with a mini-bead beater. Serial dilutions of the tissue homogenates were plated on Sabouraud dextrose agar plates and incubated at 37° C. for 24-48 hours. CFU/g tissue was determined from colony counts.

[3] = system: C. albicans SC-5314 biofilms; assay: Mature phase biofilms (treatment) on silicone elastomer discs; type: cell-based, Candida albicans
Method: (§1) Biofilms were formed on silicone elastomer (SE) discs using a catheter-associated-biofilm model (Chandra et al., Nature Protocols 3:1909, 2008; Chandra et al., J. […] Chandra et al., J. Dental Research 80: 903, 2001). For evaluation of activity against adhesion phase biofilms (prevention), Candida cells were adhered to catheter discs for 90 min. […] Discs incubated with fluconazole or media alone were used as controls in all experiments. […] Chandra et al., J. […] Chandra et al., J. Dental Research 80: 903, 2001). Following incubation with drugs, discs were transferred to fresh plates containing phosphate buffered saline with XTT and menadione, incubated for 3 h at 37° C. and optical density was read at 492 nm. Separate batches of biofilms were stained with fluorescent dyes (FUN1™, CONA) and observed under Confocal Scanning Laser Microscope (CSLM) to evaluate biofilm architecture and thickness (Chandra et al., Nature Protocols 3:1909, 2008; Chandra et al., J. […] Statistical analyses for all data were performed using GraphPad Prism 6 software. Drug treated groups were compared to control untreated groups using unpaired t-tests.

[4] = system: C. albicans biofilms; assay: Time lapse microscopy of biofilm formation; type: cell-based, Candida albicans; details: up to 16 h
Text: The effective CD101 concentration obtained from the above experiments was used to monitor its effect on biofilm formation in real time using TLM, which involves capturing real-time images of a single frame at specific time intervals, allowing temporal monitoring of the interactions occurring between the drug and Candida biofilms. Captured images were combined in a time sequence, resulting in an animation depicting the sequence of events that occurred with the passage of time. Briefly, the discs with C. albicans (adhered for 90 min as above) were placed in a 35-mm-diameter glass-bottom Petri dish (MiTek Corp., Ashland, MA). […] Phase contrast images for this interaction were captured immediately from 0 h and followed up to 16-17 h on a Leica DMI 6000 B inverted microscope connected to a Retiga EXi Aqua camera (Q-imaging Vancouver British Columbia). To determine the structural changes in the maturing biofilm, both acquisition and analysis of a series of horizontal (xy) optical sections of the biofilm was done using Metamorph Imaging software (Molecular Devices, Downington, PA). Disc incubated with media alone was used as control.

[5] = Previous toxicology studies by the IV route; type: in vivo, cynomolgus monkeys; details: up to at least 30 mg/kg
[6] = system: Candida albicans ATCC SC5314; assay: Prophylaxis, neutropenic ICR mouse candidiasis model, kidney CFU; type: in vivo
Method: Candidiasis model: ICR mice (5/group) were rendered neutropenic by cyclophosphamide on Day −4 (150 mg/kg) and Day −1 (100 mg/kg), then challenged (Day 0) with Candida albicans ATCC SC5314 via IV (100 μL, […] CFU/mouse). Prior to challenge, mice were given one SC dose (5, 10, or 20 mg/kg) of CD101 on Day −5, Day −3, or Day −1. At 24 hours post-challenge, kidneys were removed for CFU enumeration.

[7] = Pharmacokinetic profile in mice after subcutaneous dose; type: in vivo; details: mouse, plasma, 10 mg/kg SC
[8] = system: C. albicans SC-5314 biofilms; assay: Adhesion phase biofilms (prevention) on silicone elastomer discs; type: cell-based, Candida albicans
Method: as §1

[9] = Early pharmacokinetic studies, SC tolerability; type: in vivo, rats and monkeys; details: lower doses (≤5 mg/kg)
[10] = 0.25 and 1 μg/ml, 24 h, vs untreated, P<0.05

CCCCCOc1ccc(-c2ccc(-c3ccc(C(=O)N[C@H]4C[C@@H](O)[C@@H](OCC[N+](C)(C)C)NC(=O)C5C(O)[C@@H](C)CN5C(=O)[C@H]([C@@H](C)O)NC(=O)[C@H]([C@H](O)[C@@H](O)c5ccc(O)cc5)NC(=O)[C@@H]5C[C@@H](O)CN5C(=O)C(C(C)O)NC4=O)cc3)cc2)cc1 (stereo partly drawn) [CD101] ({pTerphenylCO(4''-OnC5H11)}-[Orn(4R-OH,5R-OCH2CH2NMe3+)][ξT][Hyp][hTyr(3S-OH,4S-OH)]T[X1]; lactam 1-C)
half-life ([1]; plasma, read-out: t1/2 in plasma (converted)): 39 h | half-life ([1]; all tissues studied, read-out: t1/2 in tissues): 40 to 77 h | Kp ([1]; liver, kidney, lung, spleen, read-out: tissue/plasma exposure ratios): ~4 | kidney CFU ([2]; 3 mg/kg SC Day −1, all but one animal): cleared the infection completely | kidney CFU ([2]; 3 mg/kg SC on Day −5 and Day −3 (two doses, inadvertent)): completely cleared the infection | kidney CFU ([2]; 10 or 30 mg/kg SC at all pre-challenge time points, 24 hr harvest): cleared the infection completely | biofilm architecture (CSLM) ([3]; 0.25 and 1 μg/ml): eradicated and showed bulged, deformed/broken cells | biofilm metabolic activity (XTT) [3, 10]: significantly less metabolic activity | thickness of biofilms ([3]; CD101 exposed, untreated control 43 μm, P<0.05): 24 μm | biofilm formation in real time ([4]; 0.25 μg/ml added to 3 h formed biofilms): remained stunted and failed to grow into mature biofilms | biofilm formation in real time ([4]; 0.25 μg/ml added to cells adhered 90 min): only adhered cells with stunted growth, which failed to grow into mature biofilms | safety and tolerability [5]: safe and well tolerated | kidney CFU ([6]; 10 mg/kg SC single dose at Day −3 and Day −1, 24 h post-challenge, all animals): Complete clearance | kidney CFU ([6]; 20 mg/kg SC on Day −3, all but one animal): Complete clearance | kidney CFU ([6]; 20 mg/kg SC on Day −5, −3 or −1): reduced CFU burden regardless of prophylactic treatment day | kidney CFU ([6]; 5 or 10 mg/kg SC at Day −3 and Day −1): significant decrease in CFU | half-life [7]: ~25 h | bioavailability ([7]; read-out: absolute bioavailability): ~50% | biofilm architecture (CSLM) ([8]; 0.25 and 1 μg/ml): only remnants of adhered cells, and no biofilm maturation | biofilm metabolic activity (XTT) [8, 10]: significantly less biofilms | thickness of biofilms ([8]; CD101 exposed, untreated control 36 μm, P<0.05): 4 μm | tolerability of subcutaneous administration [9]: well-tolerated
